Assay results from patent US20170369444A1, “INHIBITORS OF HISTONE DEMETHYLASES” (Gilead Sciences, Inc., priority 2014, published 2017).
pIC50: −log10 of the molar value.

Columns and labels:
Assay type in all cases: biochemical
[1] = biological target: PHF8 (KDM7) (Homo sapiens, UniProt Q9UPP1); assay: Histone lysine demethylase AlphaLISA assay, PHF8; settings: in vitro enzyme, read-out: PHF8 IC50 (HDME Inhibition)
Experimental: (§1) Histone lysine demethylase AlphaLISA assays are performed to determine IC50 values. […] Assays are performed analogously to the protocol described by PerkinElmer (Roy et al. PerkinElmer Technical Note: AlphaLISA #12, April 2011).
(§2) Assays are performed analogously to the protocol described by PerkinElmer (Roy et al. PerkinElmer Technical Note: AlphaLISA #12, April 2011).
(§3) Enzymes (final assay concentration 0.1-2.5 nM) are dissolved in enzyme buffer and incubated for 10 min before 5 μL is added to 5 μL 3% DMSO solutions of compounds in enzyme buffer, incubated for another 10 minutes, before 5 μL substrate solution is added and the reaction mixture is incubated at room temperature. 10 μL acceptor beads, suspended Epigenetic Buffer (Perkin Elmer AL008) from stock, are added and the suspension is incubated in the dark at room temperature, before 10 μL suspension of streptavidin donor beads (Perkin Elmer 6760002) in Epigenetic Buffer is added. After incubation at room temperature in the dark the plates are read.
(§4) Substrate solution: Substrate (final assay concentration 50-200 nM), 50 mM Hepes (pH 7.4-8.0), 0.003% Tween-20, 0.1% BS, 25 μM L-Asc, 10 μM α-KG. Enzyme Buffer: 50 mM Hepes (pH 7.4-8.0), 0.003% Tween-20, 0.1% BSA; 5 μM (NH4)2Fe(SO4)2

[2] = biological target: T1, KDM5B (PLU-1) (Homo sapiens, UniProt Q9UGL1); assay: Histone lysine demethylase AlphaLISA assay, KDM5B; settings: in vitro enzyme, read-out: KDM5B IC50 (HDME Inhibition)
T1 construct: 1-809; host or cells: E. coli
T1 sequence (Q9UGL1 1-809): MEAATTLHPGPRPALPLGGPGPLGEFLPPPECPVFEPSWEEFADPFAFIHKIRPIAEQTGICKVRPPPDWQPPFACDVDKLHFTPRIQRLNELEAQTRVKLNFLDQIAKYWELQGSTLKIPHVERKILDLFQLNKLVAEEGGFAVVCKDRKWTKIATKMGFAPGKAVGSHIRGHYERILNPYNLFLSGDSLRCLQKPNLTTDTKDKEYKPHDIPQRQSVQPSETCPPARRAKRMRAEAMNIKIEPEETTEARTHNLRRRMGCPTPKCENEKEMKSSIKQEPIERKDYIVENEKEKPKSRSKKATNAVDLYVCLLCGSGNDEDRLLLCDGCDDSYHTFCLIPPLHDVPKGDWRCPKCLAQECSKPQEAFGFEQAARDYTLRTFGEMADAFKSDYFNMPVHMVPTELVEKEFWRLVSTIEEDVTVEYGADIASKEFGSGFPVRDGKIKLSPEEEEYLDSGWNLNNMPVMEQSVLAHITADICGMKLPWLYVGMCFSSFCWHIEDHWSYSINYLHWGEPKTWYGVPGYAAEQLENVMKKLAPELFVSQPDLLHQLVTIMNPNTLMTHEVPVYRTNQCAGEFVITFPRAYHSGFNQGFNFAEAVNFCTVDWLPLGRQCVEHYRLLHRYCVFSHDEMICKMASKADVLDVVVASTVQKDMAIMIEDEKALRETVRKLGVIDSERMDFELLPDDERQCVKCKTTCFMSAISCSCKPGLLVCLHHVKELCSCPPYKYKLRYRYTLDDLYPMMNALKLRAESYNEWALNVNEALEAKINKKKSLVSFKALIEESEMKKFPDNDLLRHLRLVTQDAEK
Experimental: as §1, §2, §3, §4

[3] = biological target: T2, KDM6A (UTX) (Homo sapiens, UniProt O15550); assay: Histone lysine demethylase AlphaLISA assay, KDM6A; settings: in vitro enzyme, read-out: KDM6A IC50 (HDME Inhibition)
T2 construct: 919-1401; host or cells: E. coli
Experimental: as §1, §2, §3, §4

[4] = biological target: T3, KDM2B (FBXL10) (Homo sapiens, UniProt Q8NHM5); assay: Histone lysine demethylase AlphaLISA assay, KDM2B; settings: in vitro enzyme, read-out: KDM2B IC50 (HDME Inhibition)
T3 construct: 1-650; purchased BPS Bioscience, US; host or cells: Bac (baculovirus/insect cells)
T3 sequence (Q8NHM5 1-650): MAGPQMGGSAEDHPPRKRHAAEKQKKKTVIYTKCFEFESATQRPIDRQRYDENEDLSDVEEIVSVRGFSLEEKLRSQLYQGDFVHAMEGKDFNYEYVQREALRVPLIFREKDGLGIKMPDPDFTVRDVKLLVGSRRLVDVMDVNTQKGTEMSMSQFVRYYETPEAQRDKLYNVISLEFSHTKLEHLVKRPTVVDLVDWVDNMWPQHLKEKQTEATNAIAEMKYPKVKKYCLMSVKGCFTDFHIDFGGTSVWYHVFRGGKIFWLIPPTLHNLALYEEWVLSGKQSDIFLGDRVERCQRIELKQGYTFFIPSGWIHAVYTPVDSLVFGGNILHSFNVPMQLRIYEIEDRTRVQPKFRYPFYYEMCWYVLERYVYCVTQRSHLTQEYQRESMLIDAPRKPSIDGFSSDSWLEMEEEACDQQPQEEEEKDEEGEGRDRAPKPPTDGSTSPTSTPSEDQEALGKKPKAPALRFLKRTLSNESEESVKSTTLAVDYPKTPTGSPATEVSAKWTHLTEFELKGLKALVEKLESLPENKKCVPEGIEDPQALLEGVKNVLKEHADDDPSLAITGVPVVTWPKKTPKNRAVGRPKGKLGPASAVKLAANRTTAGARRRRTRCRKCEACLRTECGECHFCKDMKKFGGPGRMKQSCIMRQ
Experimental: as §1, §2, §3, §4

Chain of PHF8 (KDM7) (Q9UPP1 whole entry): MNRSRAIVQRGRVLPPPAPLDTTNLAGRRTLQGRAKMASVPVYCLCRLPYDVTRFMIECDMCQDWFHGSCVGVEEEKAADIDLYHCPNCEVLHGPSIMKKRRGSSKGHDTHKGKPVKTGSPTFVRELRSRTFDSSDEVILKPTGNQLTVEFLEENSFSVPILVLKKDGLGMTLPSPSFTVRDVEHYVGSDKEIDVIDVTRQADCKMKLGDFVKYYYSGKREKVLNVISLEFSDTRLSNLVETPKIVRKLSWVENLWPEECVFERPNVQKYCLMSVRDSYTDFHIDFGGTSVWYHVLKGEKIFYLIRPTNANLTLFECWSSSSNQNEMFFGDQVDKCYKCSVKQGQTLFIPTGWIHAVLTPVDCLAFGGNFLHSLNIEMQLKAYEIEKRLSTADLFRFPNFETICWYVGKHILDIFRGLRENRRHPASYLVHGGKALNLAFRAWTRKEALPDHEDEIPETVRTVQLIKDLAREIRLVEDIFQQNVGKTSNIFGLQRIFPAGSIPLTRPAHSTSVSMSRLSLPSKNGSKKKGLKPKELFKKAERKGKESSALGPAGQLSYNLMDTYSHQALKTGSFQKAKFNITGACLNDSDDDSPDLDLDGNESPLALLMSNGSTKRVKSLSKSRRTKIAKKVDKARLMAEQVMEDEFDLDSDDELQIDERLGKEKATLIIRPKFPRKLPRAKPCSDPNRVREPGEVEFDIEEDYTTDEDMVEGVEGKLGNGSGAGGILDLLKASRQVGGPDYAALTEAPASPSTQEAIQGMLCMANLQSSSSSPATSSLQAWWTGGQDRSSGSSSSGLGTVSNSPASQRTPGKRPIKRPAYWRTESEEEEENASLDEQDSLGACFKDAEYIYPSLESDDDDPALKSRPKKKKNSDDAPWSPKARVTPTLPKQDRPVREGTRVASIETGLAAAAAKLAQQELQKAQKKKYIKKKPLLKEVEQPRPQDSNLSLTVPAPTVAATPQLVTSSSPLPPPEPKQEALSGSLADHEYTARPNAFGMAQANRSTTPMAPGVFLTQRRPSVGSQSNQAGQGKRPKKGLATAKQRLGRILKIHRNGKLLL
T2 sequence (O15550 919-1401): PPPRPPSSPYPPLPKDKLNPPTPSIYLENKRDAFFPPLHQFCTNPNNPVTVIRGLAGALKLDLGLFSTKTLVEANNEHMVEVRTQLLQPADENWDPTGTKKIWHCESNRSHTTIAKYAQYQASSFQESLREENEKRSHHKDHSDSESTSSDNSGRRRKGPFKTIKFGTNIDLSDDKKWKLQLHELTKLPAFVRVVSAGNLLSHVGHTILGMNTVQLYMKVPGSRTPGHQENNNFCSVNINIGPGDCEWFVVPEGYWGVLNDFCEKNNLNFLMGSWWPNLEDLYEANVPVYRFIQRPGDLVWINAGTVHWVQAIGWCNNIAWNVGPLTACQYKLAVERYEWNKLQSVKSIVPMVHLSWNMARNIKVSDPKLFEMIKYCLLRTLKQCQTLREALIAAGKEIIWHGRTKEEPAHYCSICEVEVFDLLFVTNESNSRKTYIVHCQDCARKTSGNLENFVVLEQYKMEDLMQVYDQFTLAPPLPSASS

Row | pIC50 [1] | pIC50 [2] | pIC50 [3] | pIC50 [4] | Compound
1 | 5.60 to 6.60 | < 5.60 | – | – | C=CCN(CC=C)C(=O)[C@@H](CCCCNCCC)NCc1cc(C(=O)O)ccn1 [Compound 3, 2-({[(1R)-1-[bis(prop-2-en-1-yl)carbamoyl]-5-(propylamino)pentyl]amino}methyl)pyridine-4-carboxylic acid]
2 | < 5.60 | < 5.60 | < 5.60 | – | CC(N[C@@H](C)C(=O)NCc1ccccc1[N+](=O)[O-])c1cc(C(=O)O)ccn1 (stereo partly drawn) [Compound 8, 2-(1-{[(1S)-1-{[(2-nitrophenyl)methyl]carbamoyl}ethyl]amino}ethyl)pyridine-4-carboxylic acid]
3 | < 5.60 | 5.60 to 6.60 | < 5.60 | – | C=CCN(CC=C)C(=O)[C@H](CCCCNC(=O)NC(C)(C)C)NCc1cc(C(=O)O)ccn1 [Compound 9, 2-({[(1S)-1-[bis(prop-2-en-1-yl)carbamoyl]-5-[(tert-butylcarbamoyl)amino]pentyl]amino}methyl) pyridine-4-carboxylic acid]
4 | – | 5.60 to 6.60 | – | 5.60 to 6.60 | C=CCN(CC=C)C(=O)[C@H](CC(=O)NCC1(CO)CC1)NCc1cc(C(=O)O)ccn1 [Compound 11, 2-({[(1S)-1-[bis(prop-2-en-1-yl)carbamoyl]-2-({[1-(hydroxymethyl)cyclo-propyl]methyl}carba-moyl)ethyl]amino}methyl)pyridine-4-carboxylic acid]
5 | < 5.60 | 5.60 to 6.60 | < 5.60 | – | C=CCN(CC=C)C(=O)[C@H](CCCCN(C)C(=O)NC)NCc1cc(C(=O)O)ccn1 [Compound 20, 2-({[(1S)-1-[bis(prop-2-en-1-yl)carbamoyl]-5-[methyl(methylcarba-moyl)amino]pentyl]amino}methyl)pyridine-4-carboxylic acid]
6 | – | < 5.60 | – | 5.60 to 6.60 | O=C(O)c1ccnc(CNCC(=O)N2CCCCC2)n1 [Compound 23, 2-({[2-oxo-2-(piperidin-1-yl)ethyl]amino}methyl) pyrimidine-4-carboxylic acid]
7 | < 5.60 | < 5.60 | – | – | C=CCN(CC=C)C(=O)[C@H](CCS(C)(=O)=O)NCc1cc(C(=O)O)ccn1 [Compound 29, 2-({[(1S)-1-[bis(prop-2-en-1-yl)carbamoyl]-3-methanesulfonylpropyl]amino}methyl)pyridine-4-carboxylic acid]
8 | 5.60 to 6.60 | < 5.60 | < 5.60 | – | CC(N[C@H](C)c1nccs1)c1cc(C(=O)O)ccn1 (stereo partly drawn) [Compound 30, 2-(1-{[(1R)-1-(1,3-thiazol-2-yl)ethyl]amino}ethyl) pyridine-4-carboxylic acid]
9 | – | > 6.60 | – | 5.60 to 6.60 | CCN(CC)C(=O)CCN(CCO)Cc1cc(C(=O)O)ccn1 [Compound 44, 2-({[2-(diethylcarbamoyl)ethyl](2-hydroxyethyl)amino}methyl)pyridine-4-carboxylic acid]
10 | – | < 5.60 | – | 5.60 to 6.60 | CC(c1cc(C(=O)O)ccn1)N(C)CC(=O)N1CCCCC1 (stereo not drawn) [Compound 47, 2-(1-{methyl[2-oxo-2-(piperidin-1-yl)ethyl]amino}ethyl) pyridine-4-carboxylic acid]
11 | < 5.60 | < 5.60 | – | – | O=C(O)c1ccnc(CN2CCC[C@H]2C(=O)N2CCCCC2)c1 [Compound 55, 2-{[(2S)-2-(piperidine-1-carbonyl)pyrrolidin-1-yl]methyl}pyridine-4-carboxylic acid]
12 | 5.60 to 6.60 | < 5.60 | – | – | O=C(O)c1ccnc(CN2CCC[C@@H]2C(=O)N2CCCCC2)c1 [Compound 56, 2-{[(2R)-2-(piperidine-1-carbonyl)pyrrolidin-1-yl]methyl}pyridine-4-carboxylic acid]
13 | > 6.60 | > 6.60 | – | – | O=C(O)c1ccnc(CN2CCC[C@@H]2CO)c1 [Compound 57, 2-{[(2R)-2-(hydroxymethyl)pyrrolidin-1-yl]methyl}pyridine-4-carboxylic acid]
14 | 5.60 to 6.60 | > 6.60 | – | – | O=C(O)c1ccnc(CN2CCC[C@H]2CO)c1 [Compound 58, 2-{[(2S)-2-(hydroxymethyl)pyrrolidin-1-yl]methyl}pyridine-4-carboxylic acid]
15 | < 5.60 | 5.60 to 6.60 | < 5.60 | – | O=C(O)c1ccnc(CN2CC[C@H]2CO)c1 [Compound 64, 2-{[(2S)-2-(hydroxymethyl)azetidin-1-yl]methyl}pyridine-4-carboxylic acid]
16 | < 5.60 | < 5.60 | < 5.60 | – | CC[C@H]1CCN(Cc2cc(C(=O)O)ccn2)[C@@H]1CO [Compound 65, 2-{[(2S,3S)-3-ethyl-2-(hydroxymethyl)pyrrolidin-1-yl]methyl}pyridine-4-carboxylic acid]
17 | < 5.60 | 5.60 to 6.60 | < 5.60 | – | CCNC(=O)C1CCCN(Cc2cc(C(=O)O)ccn2)C1 (stereo not drawn) [Compound 74, 2-{[3-(ethylcarbamoyl)piper-idin-1-yl]methyl}pyridine-4-carboxylic acid]
18 | 5.60 to 6.60 | 5.60 to 6.60 | < 5.60 | – | CCNC(=O)C1CCN(Cc2cc(C(=O)O)ccn2)C1 (stereo not drawn) [Compound 76, 2-{[3-(ethylcarbamoyl)pyrrolidin-1-yl]methyl}pyridine-4-carboxylic acid]
19 | 5.60 to 6.60 | 5.60 to 6.60 | < 5.60 | – | CCNC(=O)C[C@@H]1CCN(Cc2cc(C(=O)O)ccn2)C1 [Compound 77, 2-{[(3S)-3-[(ethylcarbamoyl)methyl]pyrrolidin-1-yl]methyl}pyridine-4-carboxylic acid]
20 | > 6.60 | 5.60 to 6.60 | < 5.60 | – | O=C(O)c1ccnc(CNCc2cn(Cc3ccc(F)cc3)c3ncccc23)c1 [Compound 83, 2-[({[1-(4-fluorobenzyl)-1H-pyrrolo[2,3-b]pyridin-3-yl]methyl}amino)methyl]pyridine-4-carboxylic acid]
21 | > 6.60 | > 6.60 | < 5.60 | – | O=C(O)c1ccnc(CNCc2cccnc2)c1 [Compound 84, 2-{[(pyridin-3-ylmethyl)amino]methyl}pyridine-4-carboxylic acid]
22 | 5.60 to 6.60 | – | < 5.60 | – | CC(C)C[C@@H](COCc1ccccc1)NCc1cc(C(=O)O)ncn1 [Compound 89, 6-({[(2S)-1-(benzyloxy)-4-methylpentan-2-yl]amino}methyl) pyrimidine-4-carboxylic acid]

Row | Compound | pIC50 [1] | pIC50 [2] | pIC50 [3] | pIC50 [4]
23 | C=CCN(CC=C)C(=O)[C@H](CCCCNC(=O)OC(C)(C)C)NCc1cc(C(=O)O)ccn1 [Compound 40, 2-({[(1S)-1-[bis(prop-2-en-1-yl)carbamoyl]-5-{[(tert-butoxy)carbonyl]amino}pentyl]amino}methyl) pyridine-4-carboxylic acid] | – | 5.60 to 6.60 | – | 5.60 to 6.60
